According to patent US11896558B2, “Use of an RXR agonist and taxanes in treating Her2+ cancers” (Io Therapeutics, Inc., priority 2021, dated 2024):
“Also recorded” adds a separate entry of the source.

Tests used:
[1] = Systemic concentrations after oral dosing in humans
RXR homodimers = assay: Activation of RXR homodimers; type: cell-based
PPAR/RXR = assay: Activation of PPAR/RXR heterodimer; type: cell-based; details: permissive heterodimer
RAR/RXR = assay: Activation of non-permissive RAR/RXR heterodimer; type: cell-based
RARα = RARα (Homo sapiens, UniProt P10276); details: α isoform
RARα, sequence (P10276 whole entry, species assumed, canonical isoform): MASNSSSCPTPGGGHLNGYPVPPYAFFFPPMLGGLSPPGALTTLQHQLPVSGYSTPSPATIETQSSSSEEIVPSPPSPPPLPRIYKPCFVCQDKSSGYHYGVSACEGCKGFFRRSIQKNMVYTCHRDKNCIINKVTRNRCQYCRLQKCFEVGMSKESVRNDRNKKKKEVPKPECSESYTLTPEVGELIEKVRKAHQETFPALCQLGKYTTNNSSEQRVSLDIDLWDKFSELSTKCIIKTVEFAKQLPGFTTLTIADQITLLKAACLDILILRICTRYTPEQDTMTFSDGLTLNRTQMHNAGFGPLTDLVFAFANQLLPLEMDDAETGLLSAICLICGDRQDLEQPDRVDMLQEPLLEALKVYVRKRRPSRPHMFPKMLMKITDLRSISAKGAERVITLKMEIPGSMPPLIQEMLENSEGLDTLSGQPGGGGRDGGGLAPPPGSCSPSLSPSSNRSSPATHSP

RARγ = RARγ (Homo sapiens, UniProt P13631); details: γ isoform
RARγ, sequence (P13631 whole entry, species assumed, canonical isoform): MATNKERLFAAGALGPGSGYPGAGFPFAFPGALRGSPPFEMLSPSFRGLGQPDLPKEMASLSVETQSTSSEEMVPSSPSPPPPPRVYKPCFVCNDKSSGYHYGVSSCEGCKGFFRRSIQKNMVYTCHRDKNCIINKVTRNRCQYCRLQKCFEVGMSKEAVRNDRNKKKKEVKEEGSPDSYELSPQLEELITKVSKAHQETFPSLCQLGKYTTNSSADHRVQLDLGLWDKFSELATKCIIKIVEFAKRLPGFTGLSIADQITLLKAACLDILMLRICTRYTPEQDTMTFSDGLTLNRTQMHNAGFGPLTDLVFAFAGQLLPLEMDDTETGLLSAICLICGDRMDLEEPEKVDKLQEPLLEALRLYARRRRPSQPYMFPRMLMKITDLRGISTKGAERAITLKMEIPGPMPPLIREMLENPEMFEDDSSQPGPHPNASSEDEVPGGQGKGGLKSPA

LXR/RXR = assay: Activation of LXR/RXR heterodimer; type: cell-based; details: permissive heterodimer
Nurr1/RXR heterodimer = assay: Activation of Nurr1/RXR heterodimer; details: permissive heterodimer
[2] = tested on: Her2+ AU565 human breast cancer cell line; assay: Growth inhibition of AU565 cells, nuclei count; type: cell-based; details: paclitaxel 2.5, 5 or 10 nM, IRX4204 10, 100 or 1000 nM, 6-10 days
Method: After 6-10 days of treatment, cells were fixed with 4% paraformaldehyde. Nuclei were stained with DAPI, imaged using ImageXpress® Pico (Molecular Devices) and counted using CellReporterXpress® Analysis Software. Each data point represents the average of six replicates.
To assess whether the increased inhibition from the combination of agents was additive or synergistic, the Combination Index (CI) was calculated using the computational program CompuSyn (ComboSyn, Inc.).

RARβ = RARβ (Homo sapiens, UniProt P10826); details: β isoform
RARβ, sequence (P10826 whole entry, species assumed, canonical isoform): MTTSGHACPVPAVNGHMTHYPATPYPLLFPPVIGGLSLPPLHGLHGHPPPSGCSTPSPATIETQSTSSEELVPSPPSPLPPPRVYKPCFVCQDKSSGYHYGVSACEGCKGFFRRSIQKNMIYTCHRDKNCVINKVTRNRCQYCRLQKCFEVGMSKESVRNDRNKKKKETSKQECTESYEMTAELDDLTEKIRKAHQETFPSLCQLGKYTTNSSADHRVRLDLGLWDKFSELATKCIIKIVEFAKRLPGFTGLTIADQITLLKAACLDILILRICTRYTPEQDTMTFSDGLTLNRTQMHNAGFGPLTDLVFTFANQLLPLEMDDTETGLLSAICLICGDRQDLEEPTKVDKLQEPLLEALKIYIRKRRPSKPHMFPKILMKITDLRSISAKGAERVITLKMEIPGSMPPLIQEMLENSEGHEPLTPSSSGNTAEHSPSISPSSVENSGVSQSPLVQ

FXR/RXR = assay: Activation of FXR/RXR heterodimer; details: permissive heterodimer
[3] = Daily dosing of IRX4204 free acid in adult human; type: in vivo
[4] = tested on: PPAR/RXR, FXR/RXR, or LXR/RXR; details: cited from earlier work
[5] = tested on: NSCLC (non-small cell lung cancer); details: cited from earlier work

## CC(/C=C/[C@@H]1C[C@]1(C)c1ccc2c(c1)C(C)(C)CCC2(C)C)=C\C(=O)O [IRX4204, 3,7-dimethyl-6(S),7(S)-methano,7-[1,1,4,4-tetramethyl-1,2,3,4-tetrahydron-aphth-7-yl]2(E), 4(E) heptadienoic acid]
[1]; oral dosage 0.01 to 0.02 mg/m^2/day, estimated
  systemic concentrations: at least 0.1 nM
[1]; oral dosage 20 mg/m^2/day, based on studies in humans
  systemic concentrations: below 200 nM
RXR homodimers
  activation of RXR homodimers: specifically activate
PPAR/RXR
  activation of PPAR/RXR heterodimer: does not activate
RAR/RXR
  activation of RAR/RXR heterodimer: does not activate
RARα
  RAR EC10 (concentration effective to cause a 10% of maximal activation of the RAR): 300 nM
RARγ
  RAR EC10 (concentration effective to cause a 10% of maximal activation of the RAR): 200 nM
LXR/RXR
  activation of LXR/RXR heterodimer: does not activate
Nurr1/RXR heterodimer
  activation of Nurr1/RXR heterodimer: specifically activates
[2]
  growth inhibition as sole agent: sensitive; also recorded: near maximal effect
RARβ
  RAR EC10 (concentration effective to cause a 10% of maximal activation of the RAR): 200 nM
FXR/RXR
  activation of FXR/RXR heterodimer: does not activate
[3]; 10 mg/day free acid
  hypothyroidism: does not result in hypothyroidism
[3]; 20 mg/day free acid
  hypothyroidism: may induce a mild hypothyroidism

## Cc1cc2c(cc1C1(c3ccc(C(=O)O)cn3)CC1)C(C)(C)CCC2(C)C [LGD268]
[4]
  activation of one or more of PPAR/RXR, FXR/RXR, or LXR/RXR: activates one or more of PPAR/RXR, FXR/RXR, or LXR/RXR

## C=C(c1ccc(C(=O)O)cc1)c1cc2c(cc1C)C(C)(C)CCC2(C)C [TARGRETIN, bexarotene]
[5]; NSCLC
  survival in pivotal Phase III clinical study: did not show increased survival
[5]; several Phase II studies in NSCLC
  results of Phase II studies: Encouraging results

## CC(=O)O[C@H]1C(=O)[C@@]2(C)[C@H]([C@H](OC(=O)c3ccccc3)[C@]3(O)C[C@H](OC(=O)[C@H](O)[C@@H](NC(=O)c4ccccc4)c4ccccc4)C(C)=C1C3(C)C)[C@]1(OC(C)=O)CO[C@@H]1C[C@@H]2O [paclitaxel, Paclitaxel, reference compound]
[2]
  growth inhibition as sole agent: sensitive
